Reference: patent publication US20220395500A1, “SMALL MOLECULE ACTIVATORS OF INTERFERON REGULATORY FACTOR 3 AND METHODS OF USE THEREOF” (Neuralexo, Inc., priority 2020, published 2022)

Experiments:
[1] = test system: Chikungunya Virus (CHIKV); assay: Adjuvant effect on anti-CHIKV total IgG titers (CHIKV VLP prime/boost); assay type: in vivo, mouse; conditions: C57BL/6 mice, IM prime and boost, 3 weeks post-boost
Procedure: Conditions shown include virus-like particle (VLP) alone, VLP+5 mg/kg ND13, VLP+10 mg/kg ND13, VLP+5 mg/kg NA-42, and VLP+10 mg/kg NA-42. Depicted is Log 10 antibody titer representing anti-CHIKV Total IgG. Individual samples are depicted as filled circles for each condition. Bar graphs represent average geometric mean titers for each treatment cohort+standard deviation.
Select chemical entities corresponding to the NA and ND chemofamilies were examined as to their ability to act as adjuvants to enhance vaccine platforms. FIG. 28 depicts a representative example showing how NA-42 and ND-13 can enhance antibody titers to a Chikungunya Virus (CHIKV) challenge. C57BL/6 mice were primed and boosted IM with 10^6 PFU equivalents of CHIKVLP alone or in the presence of ND13 or NA42; 3 weeks post-boost mice were euthanized and total IgG reactive with CHIKV was measured by ELISA in duplicate. Data presented are average geometric mean titers for each treatment cohort including each animal. Specifically, FIG. 28 depicts various conditions (virus-like particle (VLP), VLP+5 mg/kg ND13, VLP+10 mg/kg ND13, VLP+5 mg/kg NA-42, and VLP+10 mg/kg NA-42) plotted against Log 10 antibody titer representing Anti-CHIKV Total IgG.

[2] = test system: IP-10 in human monocyte-derived macrophages; assay: IP-10 induction in human monocyte-derived macrophages (ELISA); assay type: cell-based; conditions: dose response
Source text: FIG. 24 is a graph of NA-42 dose dependent IP-10 induction in human monocyte-derived macrophages. IP-10 expression was monitored by Human CXCL10/IP10 ELISA (R&D Systems, Minneapolis, Minn.) and is expressed as pg/ml. Shown are group means+/−standard deviation; ****p<0.0001.
FIG. 25 is a graph of ND-13 dose dependent IP-10 induction in human monocyte-derived macrophages. IP-10 expression was monitored by Human CXCL10/IP10 ELISA (R&D Systems, Minneapolis, Minn.) and is expressed as pg/ml. Shown are group means+/−standard deviation; ****p<0.0001.
As discussed above with regard to Example 19, target specificity of chemical entities corresponding to the ND and NA chemofamilies was examined by dose-dependent expression of IP-10 in mBMDMs. In this example, 23, target specificity of chemical entities corresponding to the ND and NA chemofamiles was examined by determining dose-dependent expression of IP-10 in human primary cells, specifically monocyte-derived macrophages. […] For FIGS. 24-25, IP-10 expression was monitored by Human CXCL10/IP10 ELISA (R&D Systems, Minneapolis, Minn.), and is expressed at FIGS. 24-25 as pg/ml.

[3] = test system: IRF3 activating pathway (TRIF, IPS1, STING) in THF cell lines; assay: Interferon dependent luciferase reporter in telomerized human fibroblasts (THF) lacking adapter molecules; assay type: cell-based; conditions: WT THF, IPS1 KO, 23 μM compound or 313 ng/ml LPS
Procedure: Shown is fold-change of an interferon dependent luciferase reporter expressed in various telomerized human fibroblasts (THF) cell lines lacking key adapter molecules in the IRF3 activating pathway (WT THF, IPS1 KO, STING KO, and TRIF KO) in response to different treatments (untreated, Sendai 1/100, 313 ng/ml LPS, 23 μM NA-42). Shown are group means+/−SEM.
Select chemical entities corresponding to the NA and ND chemofamilies were examined as to their TRIF-dependency of IRF3 induction. TRIF, or TIR-domain-containing adapter-inducing interferon-β, is an adapter in responding to activation of toll-like receptors (TLRs). For reference, FIG. 26A illustrates a cell-signalling pathway including TRIF, along with TLR4, TLR3, IPS1, STING and IRF3. […] The treatment with Sendai 1/100 serves as an IPS1-dependent control, and the treatment with 313 ng/ml LPS serves as a TRIF-dependent control. As shown at FIG. 26B, treatment with 313 ng/ml LPS induces robust IRF3 induction in WT THF, IPS1 KO, and STING KO, but not in the TRIF KO, showing that LPS induction is TRIF-dependent. […] Assessment of fold change IRF3 was determined via measurement of the interferon dependent luciferase reporter.

[4] = test system: cytokines in mBMDMs (wild-type and IRF3 KO); assay: Cytokine induction in mBMDMs (20-plex ProcartaPlex, Luminex); assay type: cell-based, mouse; conditions: for cytokine induction in mBMDMs (IL6, MCP3, Rantes, TNFa, MCP1, Mip1b, Mip1a, Gro-alpha) vs vehicle: wild-type and IRF3 KO mBMDMs
Procedure: (§1) Cytokine induction is shown for both wild-type mouse mBMDMs and IRF3 KO mouse mBMDMs. Cytokine expression was measured using a cytokine 20-plex mouse ProcartaPlex kit (Invitrogen, Carlsbad, Calif.) for labeling of multiple cytokines within an individual sample and run on a Luminex (Austin, Tex.) 200 instrument. Data is expressed as pg/ml. Shown are group means+/−SEM; […], **p<0.01, ***p<0.001, ****p<0.0001.
as §1, with “(Invitrogen)” for “(Invitrogen, Carlsbad, Calif.)”, “Luminex” for “Luminex (Austin, Tex.)”
as §1, with “expression” for “expression was”, “(Invitrogen)” for “(Invitrogen, Carlsbad, Calif.)”, “Luminex” for “Luminex (Austin, Tex.)”
Cytokine expression at each of FIGS. 22A-23B was monitored using a cytokine 20-plex mouse ProcartaPlex kit (Invitrogen, Carlsbad, Calif.) for labeling of multiple cytokines within an individual sample and run on a Luminex 200 instrument, and is expressed at FIGS. 22A-23B as pg/ml.

| Compound | antibody titers to CHIKV (Anti-CHIKV Total IgG) compared to VLP alone ([1]; VLP + 5 mg/kg) | antibody titers to CHIKV (Anti-CHIKV Total IgG) compared to VLP alone ([1]; VLP + 10 mg/kg) | IP-10 induction in human monocyte-derived macrophages [2] | TRIF-dependency of IRF3 induction [3] | off-target inflammatory activity in mBMDMs [4] | cytokine induction in mBMDMs (IL6, MCP3, Rantes, TNFa, MCP1, Mip1b, Mip1a, Gro-alpha) vs vehicle [4] |
| --- | --- | --- | --- | --- | --- | --- |
| CCOc1cccc(COc2ccc(C(=O)Nc3ccc(N4CCN(C(=O)c5cccs5)CC4)cc3)cc2)c1 [NA-42, 4-((3-ethoxybenzyl)oxy)-N-(4-(4-(thiophene-2-carbonyl)piperazin-1-yl)phenyl)benzamide] | robustly enhances | robustly enhances | dose-dependent IP-10 induction | TRIF dependent | minimal off-target inflammatory activity | IRF3 dependent cytokine induction |
| COc1ccc(C(=O)Nc2cc(-c3nc4cc(C)c(C)cc4o3)ccc2C)cc1[N+](=O)[O-] [ND-13, N-(5-(5,6-dimethylbenzo[d]oxazol-2-yl)-2-methylphenyl)-4-methoxy-3-nitrobenzamide] | – | robustly enhances | dose-dependent IP-10 induction | TRIF-dependent | minimal off-target inflammatory activity | IRF3 dependent cytokine induction |
